ChEMBL document CHEMBL1201862, “PubChem BioAssay data set” (2004)
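1) Cells in 96-well plates. 2) Compound, 48 h, 5 concentrations. 3) Linear interpolation between surrounding doses. 4) Unreached endpoint = highest concentration. GI50 is the concentration that inhibits growth by half.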 Calls of active or inactive are those of the source. No stated cut-off is given here; in the data, active = GI50 up to about 1.1 µM and inactive = higher.

How the values were obtained:
Test in all cases: NCI-60 cell line screen, 48 h
[1] = system: 786-0
[2] = system: A549
[3] = system: CCRF-CEM
[4] = system: HL-60
[5] = system: K562
[6] = system: LOX IMVI
[7] = system: MOLT-4
[8] = system: Malme-3M
[9] = system: NCI-H460
[10] = system: OVCAR-4
[11] = system: OVCAR-8
[12] = system: SF-268
[13] = system: SF-295
[14] = system: SK-MEL-28
[15] = system: SK-MEL-5
[16] = system: SR
[17] = system: SW-620
[18] = system: TK-10
[19] = system: UACC-257

Measured: GI50

COc1cc(/C=C2\CCC(C)(CN(C)C)C2=O)cc(OC)c1OC (stereo not given)
inactive: [1] > 100 µM | [2] > 100 µM | [3] 52.4 µM | [4] 1.57 µM | [5] 63.7 µM | [6] > 100 µM | [7] > 83.6 µM | [8] > 100 µM | [9] > 100 µM | [10] > 100 µM | [11] > 100 µM | [12] > 100 µM | [13] > 100 µM | [14] > 100 µM | [15] > 93.3 µM | [16] 63.4 µM | [17] > 100 µM | [18] > 100 µM | [19] > 100 µM

N#Cc1cccc(/C=N/C23CC4CC(CC(C4)C2)C3)c1
inactive: [1] > 100 µM | [2] > 100 µM | [3] 62.5 µM | [4] 21.3 µM | [5] 38.4 µM | [6] > 100 µM | [7] 99.1 µM | [8] > 100 µM | [9] > 100 µM | [10] > 100 µM | [11] > 100 µM | [12] > 100 µM | [13] > 100 µM | [14] > 100 µM | [15] > 10 µM | [16] 76.2 µM | [17] > 100 µM | [18] > 100 µM | [19] > 100 µM

c1cc2c(cnc3cscc32)s1
inactive: [1] > 100 µM | [2] > 100 µM | [3] > 100 µM | [4] > 100 µM | [5] > 100 µM | [6] > 100 µM | [7] > 100 µM | [8] > 100 µM | [9] > 100 µM | [10] > 100 µM | [11] > 100 µM | [12] > 100 µM | [13] > 100 µM | [14] > 100 µM | [15] > 100 µM | [16] > 100 µM | [17] > 100 µM | [18] > 100 µM | [19] > 100 µM

CC1=NN(C(=O)Cc2ccccc2)C(=O)/C1=C\C=C\c1ccccc1
inactive: [1] > 100 µM | [2] > 100 µM | [3] > 100 µM | [4] > 100 µM | [5] > 100 µM | [6] > 100 µM | [7] > 100 µM | [8] > 100 µM | [10] > 100 µM | [11] > 100 µM | [12] > 100 µM | [13] > 100 µM | [14] > 100 µM | [15] > 100 µM | [16] > 100 µM | [17] > 100 µM | [18] > 100 µM | [19] > 100 µM

CCOC(=O)C(NC(=O)c1nc[nH]c1/N=N/N(C)C)C(C)C (stereo not given)
inactive: [1] > 100 µM | [2] > 100 µM | [3] > 100 µM | [4] > 100 µM | [5] > 100 µM | [6] > 100 µM | [7] > 100 µM | [8] > 100 µM | [9] > 100 µM | [10] > 100 µM | [11] > 100 µM | [12] > 100 µM | [13] > 100 µM | [14] > 100 µM | [15] > 100 µM | [16] > 100 µM | [17] > 100 µM | [18] > 100 µM | [19] > 100 µM

Oc1cc(-c2c[nH]c3ccccc23)nc2cc3c(cc12)OCO3
inactive: [1] > 100 µM | [2] > 100 µM | [3] > 100 µM | [4] > 100 µM | [5] > 100 µM | [6] > 100 µM | [7] > 100 µM | [8] 23.6 µM | [9] > 100 µM | [10] 3.79 µM | [11] > 10 µM | [12] > 100 µM | [13] 92.3 µM | [14] > 100 µM | [15] > 100 µM | [16] > 100 µM | [17] > 100 µM | [18] > 100 µM | [19] > 100 µM

COc1ccc2c([nH]c3c(O)c(-c4c(C)cc5c([nH]c6c(CC=C(C)C)c(OC)ccc65)c4O)c(C)cc32)c1CC=C(C)C [BISMURRAYAFOLINE B]
inactive: [1] > 100 µM | [2] > 100 µM | [3] > 100 µM | [4] > 100 µM | [5] > 100 µM | [6] > 100 µM | [7] > 100 µM | [8] > 100 µM | [9] > 100 µM | [10] > 100 µM | [11] > 100 µM | [12] > 100 µM | [13] > 100 µM | [14] > 100 µM | [15] > 100 µM | [16] > 100 µM | [17] > 100 µM | [18] > 100 µM | [19] > 100 µM

S=c1nc2c(c[nH]1)C1c3ccccc3C2c2ccccc21
inactive: [1] > 100 µM | [2] 68.9 µM | [3] 55 µM | [4] 28.3 µM | [5] 45.6 µM | [6] > 100 µM | [7] 31.8 µM | [8] > 100 µM | [9] > 100 µM | [10] 39.2 µM | [11] > 100 µM | [12] > 100 µM | [13] 40.1 µM | [14] > 100 µM | [15] 73.8 µM | [16] 34 µM | [17] > 100 µM | [18] > 100 µM

C/C(=N\N(C)C)C(CN1CCCCC1)C(c1ccccc1)c1c(O)c2ccccc2oc1=O (stereo not given)
inactive: [1] > 100 µM | [2] > 100 µM | [3] > 100 µM | [4] > 100 µM | [5] > 100 µM | [6] > 100 µM | [7] > 100 µM | [8] > 100 µM | [9] > 100 µM | [10] > 100 µM | [11] > 100 µM | [12] > 100 µM | [13] > 100 µM | [14] > 100 µM | [15] > 100 µM | [16] > 100 µM | [17] > 100 µM | [18] > 100 µM | [19] > 100 µM

COc1cc(C(C)c2cc3c(cc2OCCCCOc2cc4c(cc2C(C)c2cc(OC)c(OC)c(OC)c2)OCO4)OCO3)cc(OC)c1OC (stereo not given)
inactive: [1] 49.2 µM | [2] 48.4 µM | [3] 48.3 µM | [4] 37.8 µM | [5] 28.2 µM | [6] > 100 µM | [7] 41.4 µM | [8] 35.6 µM | [9] 45.3 µM | [10] 92.3 µM | [11] 34.8 µM | [12] 51.5 µM | [13] 26.5 µM | [14] 71 µM | [15] 29.1 µM | [16] 10.2 µM | [17] 26.9 µM | [18] > 100 µM | [19] 84.7 µM

CC1CN(C(=O)CN2CCC(CCCCN(C)C)CC2)c2ccccc2NC1=O (stereo not given)
inactive: [1] > 100 µM | [2] > 100 µM | [3] > 100 µM | [4] > 100 µM | [5] > 100 µM | [6] > 100 µM | [7] > 100 µM | [8] > 100 µM | [9] > 100 µM | [10] > 100 µM | [12] > 100 µM | [13] > 100 µM | [14] > 100 µM | [15] > 100 µM | [16] > 100 µM | [17] > 100 µM | [19] > 100 µM
